The supplement of paper PMC13380429

Assays:
Settings in all cases: 72 h
Caco-2 [1] = assay: cell viability relative to DMSO; higher = less toxic
Calu-3 [2] = assay: as above
U2OS [3] = assay: as above
Vero E6 [4] = assay: as above
Caco-2 [5] = assay: relative viability EC50 (midpoint between 100% and the lowest measured viability); higher = less toxic
Calu-3 [6] = assay: as above
U2OS [7] = assay: as above
Vero E6 [8] = assay: as above
Caco-2 [9] = assay: drug sensitivity score (DSS) for viability; higher = more toxic; extreme values may be limits of the assay
Calu-3 [10] = assay: as above
U2OS [11] = assay: as above
Vero E6 [12] = assay: as above
HepG2 [13] = assay: cell viability relative to DMSO; higher = less toxic
HepG2 [14] = assay: relative viability EC50 (midpoint between 100% and the lowest measured viability); higher = less toxic
HepG2 [15] = assay: drug sensitivity score (DSS) for viability; higher = more toxic; extreme values may be limits of the assay

| Compound | cell viability (Caco-2 [1]; 1 nM) | cell viability (Caco-2 [1]; 10 nM) | cell viability (Caco-2 [1]; 100 nM) | cell viability (Caco-2 [1]; 1000 nM) | cell viability (Caco-2 [1]; 10000 nM) | cell viability (Calu-3 [2]; 1 nM) | cell viability (Calu-3 [2]; 10 nM) | cell viability (Calu-3 [2]; 100 nM) | cell viability (Calu-3 [2]; 1000 nM) | cell viability (Calu-3 [2]; 10000 nM) | cell viability (U2OS [3]; 1 nM) | cell viability (U2OS [3]; 10 nM) | cell viability (U2OS [3]; 100 nM) | cell viability (U2OS [3]; 1000 nM) | cell viability (U2OS [3]; 10000 nM) | cell viability (Vero E6 [4]; 1 nM) | cell viability (Vero E6 [4]; 10 nM) | cell viability (Vero E6 [4]; 100 nM) | cell viability (Vero E6 [4]; 1000 nM) | cell viability (Vero E6 [4]; 10000 nM) | relative viability EC50 (Caco-2 [5]) | relative viability EC50 (Calu-3 [6]) | relative viability EC50 (U2OS [7]) | relative viability EC50 (Vero E6 [8]) | drug sensitivity score (Caco-2 [9]) | drug sensitivity score (Calu-3 [10]) | drug sensitivity score (U2OS [11]) | drug sensitivity score (Vero E6 [12]) | cell viability (HepG2 [13]; 1 nM) | cell viability (HepG2 [13]; 10 nM) | cell viability (HepG2 [13]; 100 nM) | cell viability (HepG2 [13]; 1000 nM) | cell viability (HepG2 [13]; 10000 nM) | relative viability EC50 (HepG2 [14]) | drug sensitivity score (HepG2 [15]) |
| --- | --- | --- | --- | --- | --- | --- | --- | --- | --- | --- | --- | --- | --- | --- | --- | --- | --- | --- | --- | --- | --- | --- | --- | --- | --- | --- | --- | --- | --- | --- | --- | --- | --- | --- | --- |
| CN(c1nccc(=O)[nH]1)C1CCN(c2nc3ccccc3n2Cc2ccc(F)cc2)CC1 [mizolastine] | 89.5% | 99.9% | 98% | 100% | 98.3% | 103% | 104% | 99.5% | 102% | 108% | 101% | 98.5% | 101% | 103% | 102% | 97.5% | 101% | 98.6% | 97.8% | 107% | > 10 µM | > 10 µM | > 10 µM | > 10 µM | 0 | 0 | 0 | 0 | – | – | – | – | – | – | – |
| CC1=C(/C=C/C(C)=C/C=C/C(C)=C/C=O)C(C)(C)CCC1 [retinaldehyde] | 100% | 104% | 89.5% | 97.8% | 90.4% | 98.9% | 108% | 104% | 88.8% | 87.4% | 104% | 107% | 101% | 99.4% | 92.9% | 99.2% | 95.1% | 95.2% | 95.3% | 99.9% | > 10 µM | > 10 µM | > 10 µM | > 10 µM | 0 | 0.6 | 0 | 0 | – | – | – | – | – | – | – |
| Oc1c(I)cc(I)c(O)c1I [riodoxol] | 94.9% | 93.8% | 98.1% | 93.5% | 104% | 103% | 95.1% | 103% | 104% | 98.5% | – | – | – | – | – | 101% | 99.3% | 99.6% | 101% | 94.6% | > 10 µM | > 10 µM | – | > 10 µM | 0 | 0 | – | 0 | 97.2% | 91.1% | 101% | 93.2% | 96.9% | > 10 µM | 0 |
| CCCN(CCC)CCc1cccc2c1CC(=O)N2 [ropinirole] | 97.8% | 108% | 100% | 104% | 105% | 92.9% | 106% | 99.7% | 89.8% | 103% | – | – | – | – | – | 100% | 101% | 101% | 99.3% | 96.3% | > 10 µM | > 10 µM | – | > 10 µM | 0 | 0 | – | 0 | 99.1% | 100% | 87.7% | 103% | 104% | > 10 µM | 0 |
| Cc1c(C(=O)Nc2ccc(N3C[C@@H](C)O[C@@H](C)C3)nc2)cccc1-c1ccc(OC(F)(F)F)cc1 [sonidegib] | 102% | 98.8% | 95.7% | 98% | 81.4% | 109% | 98.4% | 92.7% | 97.9% | 97.2% | 99.5% | 94.1% | 102% | 96.5% | 87.3% | 105% | 109% | 102% | 104% | 84% | > 10 µM | > 10 µM | > 10 µM | > 10 µM | 0.7 | 0 | 0.3 | 0.2 | 104% | 96.8% | 99.7% | 98.9% | 71.3% | – | 1.4 |
| Cn1nnc(-c2ccc(-c3ccc(N4C[C@H](CO)OC4=O)cc3F)cn2)n1 [tedizolid] | 113% | 106% | 94.2% | 93.3% | 82.2% | 103% | 95.4% | 99.6% | 108% | 106% | 101% | 102% | 96.7% | 96.3% | 94.1% | 94% | 99.6% | 98.3% | 101% | 92.9% | > 10 µM | > 10 µM | > 10 µM | > 10 µM | 0.6 | 0 | 0 | 0 | 111% | 95.4% | 99.5% | 76.9% | 55.7% | – | 5.1 |
